Data on 9 compounds can be found in ChEMBL document CHEMBL3792292, “Development of a potent and selective FLT3 kinase inhibitor by systematic expansion of a non-selective fragment-screening hit” (Bioorg Med Chem Lett, 2016).

Molecules are shown by their SMILES. Some results are limits rather than exact numbers.

In the assay the target is T1, Receptor-type tyrosine-protein kinase FLT3 (Homo sapiens, UniProt P36888).
T1 sequence (P36888 whole entry): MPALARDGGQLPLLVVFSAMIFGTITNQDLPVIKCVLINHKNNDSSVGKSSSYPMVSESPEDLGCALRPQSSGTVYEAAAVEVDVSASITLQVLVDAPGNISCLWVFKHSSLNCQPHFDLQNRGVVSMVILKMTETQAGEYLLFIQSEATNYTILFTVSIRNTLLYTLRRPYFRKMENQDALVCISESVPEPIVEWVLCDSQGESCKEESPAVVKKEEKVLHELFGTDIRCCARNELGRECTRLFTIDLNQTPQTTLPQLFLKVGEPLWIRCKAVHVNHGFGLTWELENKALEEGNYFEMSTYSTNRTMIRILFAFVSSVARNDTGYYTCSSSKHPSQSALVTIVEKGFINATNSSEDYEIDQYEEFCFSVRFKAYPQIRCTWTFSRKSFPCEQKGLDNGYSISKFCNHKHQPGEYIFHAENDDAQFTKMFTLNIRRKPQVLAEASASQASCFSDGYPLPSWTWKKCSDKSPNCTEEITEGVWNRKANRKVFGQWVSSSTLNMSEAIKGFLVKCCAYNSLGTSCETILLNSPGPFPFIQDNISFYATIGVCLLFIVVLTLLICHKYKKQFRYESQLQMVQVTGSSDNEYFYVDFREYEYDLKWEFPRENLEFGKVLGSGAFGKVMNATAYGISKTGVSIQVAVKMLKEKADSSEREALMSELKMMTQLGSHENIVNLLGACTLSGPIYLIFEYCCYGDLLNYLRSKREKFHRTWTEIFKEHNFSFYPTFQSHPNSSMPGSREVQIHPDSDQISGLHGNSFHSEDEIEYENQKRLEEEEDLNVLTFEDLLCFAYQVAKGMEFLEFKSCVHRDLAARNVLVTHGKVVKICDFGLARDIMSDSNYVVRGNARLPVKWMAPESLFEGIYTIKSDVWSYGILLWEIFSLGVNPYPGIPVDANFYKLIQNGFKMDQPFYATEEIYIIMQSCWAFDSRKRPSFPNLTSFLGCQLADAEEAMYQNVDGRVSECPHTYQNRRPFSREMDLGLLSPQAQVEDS
Description: Inhibition of human N-terminal GST-tagged FLT3 cytoplasmic domain (564 to 993 residues) expressed in baculovirus expression system using 5-FAM-peptide 2 as substrate after 2 hrs by electrophoretic mobility shift assay in presence of ATP. A general note: In EMSA bound probe runs differently from free probe, usually more slowly.

For orientation: IC50 means the concentration at which inhibition is half-maximal. As for `CN(C(=O)c1n[nH]c2ccccc12)c1ccccc1`, the IC50 was greater than 2000 nM.

For the compound `Cc1ccccc1NC(=O)c1n[nH]c2ccccc12`, the IC50 was greater than 2000 nM.

With `O=C(Nc1ccccc1)c1c[nH]c2ccccc12`, the half-maximal inhibitory concentration (IC50) is greater than 2000 nM. The figure for `Cn1nc(C(=O)Nc2ccccc2)c2ccccc21` is greater than 2000 nM; for `COc1ccccc1NC(=O)c1n[nH]c2ccccc12` it is greater than 2000 nM; for `COc1ccc(NC(=O)c2n[nH]c3ccccc23)cc1` it is 352 nM. As for `COC(=O)c1cccc(NC(=O)c2n[nH]c3ccccc23)c1`, the IC50 is greater than 2000 nM. Take `COC(=O)c1ccccc1NC(=O)c1n[nH]c2ccccc12`: the 50% inhibitory concentration (IC50) was greater than 2000 nM. Regarding `O=C(Nc1ccc(N2CCN(c3ccccc3)CC2)cc1)c1n[nH]c2ccccc12`, the IC50 is greater than 2000 nM.
